We go through six compounds from paper PMC8584173, “The Cytotoxic Effect of Copper (II) Complexes with Halogenated 1,3-Disubstituted Arylthioureas on Cancer and Bacterial Cells” (International Journal of Molecular Sciences, 2021).

The test system of one assay is P. aeruginosa ATCC 15442. Description: MIC, twofold serial microdilution. To be noted: P. aeruginosa ATCC 15442, 18 h, 35 °C. It is filed as cell-based, Pseudomonas aeruginosa. As to the method: (§1) The antimicrobial activity of the compounds was tested on Gram-positive bacteria (Staphylococcus aureus NCTC 4163, Staphylococcus aureus ATCC 25923, Staphylococcus aureus ATCC 6538, Staphylococcus aureus ATCC 29213, Staphylococcus epidermidis ATCC 12228, Staphylococcus epidermidis ATCC 35984), Gram-negative rods (Escherichia coli ATCC 10538, Escherichia coli ATCC 25922, Pseudomonas aeruginosa ATCC 15442, Pseudomonas aeruginosa ATCC 27863) and yeasts (Candida albicans ATCC 10231, Candida albicans ATCC 90028, Candida parapsilosis ATCC 22019). Hospital methicillin-resistant strains of Staphylococcus aureus and Staphylococcus epidermidis were obtained from the collection of the Department of Pharmaceutical Microbiology, Medical University of Warsaw, Poland.
(§2) Antifungal activities were assessed using Mueller–Hinton agar + 2% glucose and 0.5 µg/mL methylene blue dye medium. Sterile filter paper discs (9 mm diameter, Whatman Number 3 chromatography paper) were dripped with tested compound solutions (in dimethylsulfoxide, DMSO) to load 400 μg of a given compound per disc. Dry discs were placed on the surface of appropriate agar medium. The results (diameter of the growth inhibition zone) were read after 18 h of incubation at 35 °C. Minimal inhibitory concentration (MIC) was tested by the twofold serial microdilution method (in 96-well microtiter plates) using Mueller–Hinton broth medium (Beckton Dickinson) for bacteria or RPMI-1640 medium for Candida species, according to CLSI guidelines. The stock solution of tested agent was prepared in DMSO and diluted in sterile water. […] The final inoculum of all studied microorganisms was 10^5 CFU/ mL^−1 (colony forming units per ml). Minimal inhibitory concentrations (the lowest concentration of a tested agent that prevents visible growth of a microorganism) were read after 18 h (bacteria) or 24 h (yeasts) of incubation at 35 °C.
(In general: In broth dilution the organism is exposed to a series of concentrations in liquid medium.)

The test system of the next assay is P. aeruginosa ATCC 27853. Description: MIC, twofold serial microdilution. It is filed as cell-based, Pseudomonas aeruginosa. To be noted: P. aeruginosa ATCC 27853, 18 h, 35 °C. As to the method:
as §1, §2

Another assay has as its system S. aureus 573. Description: MIC, hospital MRSA strain. The conditions noted are these: hospital MRSA S. aureus 573. It is filed as cell-based, Staphylococcus aureus. As to the method: as §1, §2
In another assay the test system is S. aureus 496. Description: MIC, hospital MRSA strain. Type of assay: cell-based, Staphylococcus aureus. To be noted: hospital MRSA S. aureus 496. As for the experimental part: as §1, §2
For another assay, the system named is S. aureus 498. The assay is described as follows: MIC, hospital MRSA strain. It is filed as cell-based, Staphylococcus aureus. The conditions noted are these: hospital MRSA S. aureus 498. As for the experimental part: as §1, §2
Another assay has as its system S. aureus 572. The assay is described as follows: MIC, hospital MRSA strain. It is filed as cell-based, Staphylococcus aureus. The conditions noted are these: for MIC: hospital MRSA S. aureus 572; for times more active than ciprofloxacin: S. aureus 572. As for the experimental part: as §1, §2
The next assay has as its system S. aureus 568. The assay is described as follows: MIC, hospital MRSA strain. Type of assay: cell-based, Staphylococcus aureus. To be noted: hospital MRSA S. aureus 568. As for the experimental part: as §1, §2
The test system of a further assay is S. aureus 495. Description: MIC, hospital MRSA strain. It is filed as cell-based, Staphylococcus aureus. The conditions noted are these: hospital MRSA S. aureus 495. As for the experimental part: as §1, §2
For another assay, the system named is S. aureus 585. The assay is described as follows: MIC, hospital MRSA strain. It is filed as cell-based, Staphylococcus aureus. To be noted: hospital MRSA S. aureus 585. As for the experimental part:
as §1, §2

The test system of the next assay is S. aureus 481. The assay is described as follows: MIC, hospital MRSA strain. Type of assay: cell-based, Staphylococcus aureus. The conditions noted are these: for MIC: hospital MRSA S. aureus 481; for times more active than ciprofloxacin: S. aureus 481. As for the experimental part: as §1, §2
The test system of a further assay is S. aureus 497. The assay is described as follows: MIC, hospital MRSA strain. Type of assay: cell-based, Staphylococcus aureus. The conditions noted are these: hospital MRSA S. aureus 497. As to the method:
as §1, §2

A further assay deals with S. aureus 567. Description: MIC, hospital MRSA strain. Type of assay: cell-based, Staphylococcus aureus. The conditions noted are these: hospital MRSA S. aureus 567. As for the experimental part: as §1, §2
For the next assay, the system named is S. aureus 514. Description: MIC, hospital MRSA strain. Type of assay: cell-based, Staphylococcus aureus. To be noted: hospital MRSA S. aureus 514. As for the experimental part:
as §1, §2

The next assay concerns S. aureus 522. Description: MIC, hospital MRSA strain. Type of assay: cell-based, Staphylococcus aureus. The conditions noted are these: hospital MRSA S. aureus 522. As to the method: as §1, §2
The subject of the next assay is S. aureus 537. Description: MIC, hospital MRSA strain. Type of assay: cell-based, Staphylococcus aureus. The conditions noted are these: hospital MRSA S. aureus 537. As to the method: as §1, §2
A further assay has as its system S. aureus 586. Description: MIC, hospital MRSA strain. Type of assay: cell-based, Staphylococcus aureus. To be noted: hospital MRSA S. aureus 586. As to the method:
as §1, §2

In the next assay the test system is interleukin-6 (IL-6). Description: IL-6 level assay (ELISA). It is filed as cell-based, human. To be noted: 72 h. As to the method:
IL-6 concentration at all studied cancer cells and normal HaCaT cell lines was measured by ELISA kit (Diaclon SAS Besancon Cedex, France). […] IL-6 in cell culture supernatant was measured using enzyme-linked immunosorbent assay in accordance with the manufacturer’s protocol.
For orientation: An ELISA detects its analyte on a solid surface through an enzyme-linked reagent.

SMILES strings stand for the structures. Where only a bound is given, the exact number is not on record here.

Turning to `O=[N+]([O-])c1cc([N+]2=C(Nc3cccc(Br)c3)[S][Cu-2]23[S]C(Nc2cccc(Br)c2)=[N+]3c2ccc(Cl)c([N+](=O)[O-])c2)ccc1Cl` [Compound 2, Copper (II) complex with 1-(3-bromophenyl)-3-(4-chloro-3-nitrophenyl)thiourea], the minimal inhibitory concentration (MIC) (in general, the least concentration at which growth counts as inhibited) in the assay on P. aeruginosa ATCC 15442 is 128 µg/mL; with P. aeruginosa ATCC 27853, 128 µg/mL; in the assay on S. aureus 573, 8 µg/mL; in the assay with S. aureus 496, 8 µg/mL; in the assay with S. aureus 498, 8 µg/mL; in the assay with S. aureus 572 it was 8 µg/mL. Besides, the MIC against S. aureus 568, in the assay with S. aureus 495, in the assay with S. aureus 585, in the assay with S. aureus 481, against S. aureus 497 and against S. aureus 567 was 8 µg/mL in each case. In addition, the MIC against S. aureus 514, against S. aureus 522, with S. aureus 537 and in the assay on S. aureus 586 was 8 µg/mL throughout.
With `O=[N+]([O-])c1cc([N+]2=C(Nc3ccc(I)cc3)[S][Cu-2]23[S]C(Nc2ccc(I)cc2)=[N+]3c2ccc(Cl)c([N+](=O)[O-])c2)ccc1Cl` [Compound 8, Copper (II) complex with 1-(4-iodophenyl)-3-(4-chloro-3-nitrophenyl)thiourea], the “reduction of IL-6 secretion, times” value in the assay on interleukin-6 (IL-6) (PC3, IC50 dose) is listed as “almost twofold”. Moreover, in the assay on interleukin-6 (IL-6) (SW480, IC50 dose, vs control), the “reduction of IL-6 level, times” value was “twofold”. Further, the minimal inhibitory concentration (MIC) in the assay on P. aeruginosa ATCC 15442 came to 128 µg/mL; in the assay on P. aeruginosa ATCC 27853, 128 µg/mL; in the assay on S. aureus 573, 8 µg/mL; against S. aureus 496 it was 8 µg/mL; in the assay on S. aureus 498, 8 µg/mL; in the assay on S. aureus 572, 4 µg/mL. Besides, the minimal inhibitory concentration (MIC) was found to be 8 µg/mL against S. aureus 568; 4 µg/mL in the assay with S. aureus 495; 8 µg/mL against S. aureus 585; 4 µg/mL against S. aureus 481; 8 µg/mL in the assay on S. aureus 497; 8 µg/mL with S. aureus 567. Besides, the minimum inhibitory concentration (MIC) against S. aureus 514 came out at 4 µg/mL; in the assay on S. aureus 522, 4 µg/mL; in the assay on S. aureus 537, 8 µg/mL; against S. aureus 586, 8 µg/mL. Besides, the “times more active than ciprofloxacin” value with S. aureus 572 and with S. aureus 481 was 64 times throughout.
`O=[N+]([O-])c1cc([N+]2=C(Nc3ccccc3F)[S][Cu-2]23[S]C(Nc2ccccc2F)=[N+]3c2ccc(Cl)c([N+](=O)[O-])c2)ccc1Cl` [Compound 7, Copper (II) complex with 1-(2-fluorophenyl)-3-(4-chloro-3-nitrophenyl)thiourea]: the “decrease of IL-6 level” value with interleukin-6 (IL-6) (SW480, IC50 dose, vs control) was not above 30%. Besides, the MIC is more than 256 µg/mL with P. aeruginosa ATCC 15442; 128 µg/mL in the assay with P. aeruginosa ATCC 27853; 8 µg/mL against S. aureus 573; 8 µg/mL in the assay with S. aureus 496; 4 µg/mL with S. aureus 498; 4 µg/mL with S. aureus 572. The MIC in the assay on S. aureus 568 is 8 µg/mL; with S. aureus 495, 8 µg/mL; against S. aureus 585, 8 µg/mL; with S. aureus 481, 4 µg/mL; against S. aureus 497, 8 µg/mL; against S. aureus 567 it was 4 µg/mL. The minimum inhibitory concentration (MIC) in the assay on S. aureus 514, against S. aureus 522, with S. aureus 537 and with S. aureus 586 was 8 µg/mL throughout. The “times more active than ciprofloxacin” value in the assay on S. aureus 572 and in the assay with S. aureus 481 was 64 times each time.
For `O=[N+]([O-])c1cc([N+]2=C(Nc3ccc(F)c(Cl)c3)[S][Cu-2]23[S]C(Nc2ccc(F)c(Cl)c2)=[N+]3c2ccc(Cl)c([N+](=O)[O-])c2)ccc1Cl` [Compound 4, Copper (II) complex with 1-(3-chloro-4-fluorophenyl)-3-(4-chloro-3-nitrophenyl)thiourea], the minimum inhibitory concentration (MIC) is 128 µg/mL with P. aeruginosa ATCC 15442; 128 µg/mL in the assay on P. aeruginosa ATCC 27853; 4 µg/mL against S. aureus 573; 8 µg/mL in the assay with S. aureus 496; 4 µg/mL in the assay with S. aureus 498; 4 µg/mL in the assay with S. aureus 572. Further, the MIC is reported as 4 µg/mL with S. aureus 568; 4 µg/mL against S. aureus 495; 4 µg/mL against S. aureus 585; 4 µg/mL against S. aureus 481; 8 µg/mL with S. aureus 497; 4 µg/mL against S. aureus 567. Moreover, the minimal inhibitory concentration (MIC) against S. aureus 514, with S. aureus 522, in the assay on S. aureus 537 and in the assay with S. aureus 586 was 4 µg/mL in each case. The “times more active than ciprofloxacin” value in the assay with S. aureus 572 and in the assay on S. aureus 481 was 64 times each time.
Regarding `O=[N+]([O-])c1cc(NC2=[N+](c3ccc(Cl)c([N+](=O)[O-])c3)[Cu-2]3([S]2)[S]C(Nc2ccc(Cl)c([N+](=O)[O-])c2)=[N+]3c2ccc(Cl)c([N+](=O)[O-])c2)ccc1Cl` [Compound 6, Copper (II) complex with 1,3-bis(4-chloro-3-nitrophenyl)thiourea], the MIC in the assay with P. aeruginosa ATCC 15442 amounted to 128 µg/mL; in the assay on P. aeruginosa ATCC 27853, 128 µg/mL; with S. aureus 573, 32 µg/mL; against S. aureus 496 it was 32 µg/mL; in the assay on S. aureus 498 it was 32 µg/mL; against S. aureus 572 it was 32 µg/mL. Also, the minimum inhibitory concentration (MIC) against S. aureus 568, in the assay on S. aureus 495, against S. aureus 585, against S. aureus 481, in the assay with S. aureus 497 and with S. aureus 567 was 32 µg/mL each time. Further, the minimum inhibitory concentration (MIC) in the assay with S. aureus 514, against S. aureus 522, in the assay with S. aureus 537 and in the assay with S. aureus 586 was 32 µg/mL throughout.
In the case of `O=[N+]([O-])c1cc([N+]2=C(Nc3ccc(Cl)c(Cl)c3)[S][Cu-2]23[S]C(Nc2ccc(Cl)c(Cl)c2)=[N+]3c2ccc(Cl)c([N+](=O)[O-])c2)ccc1Cl` [Compound 5, Copper (II) complex with 1-(4-chloro-3-nitrophenyl)-3-(3,4-dichlorophenyl)thiourea], the MIC worked out at 128 µg/mL in the assay on P. aeruginosa ATCC 15442; 128 µg/mL in the assay with P. aeruginosa ATCC 27853; 16 µg/mL with S. aureus 573; 32 µg/mL against S. aureus 496; 16 µg/mL in the assay with S. aureus 498; 16 µg/mL in the assay on S. aureus 572. The MIC in the assay on S. aureus 568, with S. aureus 495, with S. aureus 585, against S. aureus 481, against S. aureus 497 and against S. aureus 567 was 16 µg/mL in each case. In addition, the MIC in the assay on S. aureus 514 is reported as 32 µg/mL; against S. aureus 522, 16 µg/mL; against S. aureus 537, 16 µg/mL; with S. aureus 586, 16 µg/mL.
